Results from patent US20050118678A1, “Modified polypeptides with therapeutic activity and methods of use” (priority 2003, published 2005).
Residues, ends and D or L forms follow the SMILES beside them. No end group written: not given here. *: point of attachment. Stearoyl = CCCCCCCCCCCCCCCCCC(=O)*; Lauroyl = CCCCCCCCCCCC(=O)*

Legend:
human red blood cells = conditions: for Hemolysis (LD50): red cells of human, 1 h
S. pyogenes Wilson = conditions: pH 7
B. anthracis = conditions: cell survival by optical density at 650 nm
[1] = system: erythrocytes (hemolytic activity); conditions: cited from earlier work
P. aeruginosa Type I = conditions: pH 7
E. coli J96 = conditions: J96, pH 7
S. pyogenes Eaton = conditions: pH 7
S. aureus MN8 = conditions: MN8, pH 7
S. aureus MNHO = conditions: pH 7
E. coli IA2 = conditions: IA2, pH 7
[2] = system: drug-resistant strains of S. aureus (W73134 and M49780); experiment: Example 2 antibacterial effect on drug-resistant strains; type: cell-based; conditions: W73134 and M49780, FIG. 15 and 16
bacteria = experiment: Example 3 antibacterial activity of lauric acid conjugates; type: cell-based; conditions: lauric acid conjugate vs unconjugated peptide
Excerpt: The hemolytic activity of the KAK and AKK peptides and conjugates was low. […] Fatty acid conjugation will improve the usefulness of peptides as antimicrobial agents by enhancing their ability to form secondary structures upon interacting with the bacterial membranes.

E. coli 055:B5 LPS = experiment: Limulus amoebocyte lysate assay for LPS neutralization; type: biochemical; conditions: for IC50: 0.04 unit E. coli 055:B5 LPS, chromogenic QCL-1000 kit, read-out: LPS Binding (IC50); for LPS binding activity, fold higher than the SC4 peptide: relative to SC4
Method: Limulus amoebocyte lysate assay for lipopolysaccharide (LPS) neutralization. The ability of SC4 peptide and amphiphiles to neutralize endotoxin was measured using the chromogenic QCL-1000 kit from BioWhittaker, Inc. (Walkersville, Md). This method is quantitative for Gram-negative bacterial endotoxin (LPS) and uses peptide inhibition of LPS-mediated activation of a proenzyme as a measure of activity (Young et al., J. Clin. Invest. 51, 1790-1797 (1972)). Peptides of the appropriate concentration were mixed with Limulus amoebocyte lysate, 0.04 unit (0.01 nanogram (ng)) of E. coli 055:B5 LPS (SIGMA), and a colorless synthetic substrate (Ac-Ile-Glu-Ala-Arg-pNA) (SEQ ID NO: 18). Peptide binding to LPS was determined by monitoring enzymatic conversion of the substrate to yellow p-nitroaniline (pNA) via absorption at 410 nm. Endotoxin concentration was determined from the initial rate of enzyme activation. IC50 (concentration displaying 50% inhibition) values for LPS binding were determined by fitting to a dose-response curve.

[3] = system: MN8, Hoch, Knutson, FR1722, and RN6390; experiment: Example 2 antibacterial effect on five Gram-positive strains; type: cell-based; conditions: FIG. 10-14

Row | Compound | Bactericidal Activity (LD50) S. aureus W73134 (S. aureus W73134) | Hemolysis (LD50) (human red blood cells) | Bactericidal Activity (LD50) S. pyogenes Wilson (S. pyogenes Wilson) | Bactericidal Activity (LD50) S. aureus M49780 (S. aureus M49780) | Bactericidal Activity (LD50) B. anthracis (B. anthracis) | Bactericidal Activity (LD50) P. aeruginosa Type I (P. aeruginosa Type I) | Bactericidal Activity (LD50) E. coli J96 (E. coli J96) | Bactericidal Activity (LD50) S. pyogenes Eaton (S. pyogenes Eaton) | Bactericidal Activity (LD50) S. aureus MN8 (S. aureus MN8) | Bactericidal Activity (LD50) S. aureus MNHO (S. aureus MNHO) | Bactericidal Activity (LD50) E. coli IA2 (E. coli IA2) | Hemolytic activity (eukaryotic cell) | also measured
1 | CC[C@H](C)[C@H](NC(=O)[C@@H](NC(=O)[C@H](CCCCN)NC(=O)[C@H](Cc1c[nH]c2ccccc12)NC(=O)[C@H](CCCCN)NC(=O)[C@H](CC(C)C)NC(=O)[C@H](Cc1c[nH]cn1)NC(=O)[C@H](CCCNC(=N)N)NC(=O)[C@H](CCCCN)NC(=O)[C@H](Cc1ccccc1)NC(=O)[C@H](CC(C)C)NC(=O)[C@@H](N)CCCCN)[C@@H](C)CC)C(N)=O [SC4, KLFKRHLKWKII, reference compound] (H-KLFKRHLKWKII-NH2) | 2.3 µM | >375 µM | >1.0 µM | 2.0 µM | >15 µM | 0.028 µM | 0.12 µM | >2.0 µM | 1.3 µM | 2.3 µM | 0.21 µM | – | Concentration up to which little hemolytic activity was demonstrated (human red blood cells): > 400 µM; Concentration below which no hemolytic activity is shown [1]: ≥ 100 µM
2 | conjugated KAK: KAK peptide YG[AKAKAAKA](2) conjugated with lauric acid (YGAKAKAAKA; numbers in words are those of the source; also: dimer [AKAKAAKA](2), lauric acid conjugate, place not given here) | – | – | – | – | – | – | – | – | – | – | – | low | –
3 | CCCCCCCCCCCC(=O)N[C@@H](CCCCN)C(=O)N[C@@H](CC(C)C)C(=O)N[C@@H](Cc1ccccc1)C(=O)N[C@@H](CCCCN)C(=O)N[C@@H](CCCNC(=N)N)C(=O)N[C@@H](Cc1c[nH]cn1)C(=O)N[C@@H](CC(C)C)C(=O)N[C@@H](CCCCN)C(=O)N[C@@H](Cc1c[nH]c2ccccc12)C(=O)N[C@@H](CCCCN)C(=O)N[C@H](C(=O)N[C@H](C(N)=O)[C@@H](C)CC)[C@@H](C)CC [C12-SC4] (Lauroyl-KLFKRHLKWKII-NH2) | 0.62 µM | 6.2 µM | 0.16 µM | 0.66 µM | 3.25 µM | 0.035 µM | 0.077 µM | 0.066 µM | 0.68 µM | 0.34 µM | 0.079 µM | – | Killing of drug-resistant S. aureus strains [2]: killed both drug-resistant strains; Change in hemolytic activity on fatty acid conjugation (eukaryotic cell): large increase in hemolytic activity; Antimicrobial activity relative to unconjugated peptide (bacteria): increased antimicrobial activity; IC50 (E. coli 055:B5 LPS): 230 nM; LPS binding activity, fold higher than the SC4 peptide (E. coli 055:B5 LPS): approximately 3 fold
4 | C[C@H](NC(=O)[C@H](CCCCN)NC(=O)[C@H](C)NC(=O)[C@H](C)NC(=O)[C@H](CCCCN)NC(=O)[C@H](C)NC(=O)[C@H](CCCCN)NC(=O)[C@H](C)NC(=O)[C@H](C)NC(=O)[C@H](CCCCN)NC(=O)[C@H](C)NC(=O)[C@H](C)NC(=O)[C@H](CCCCN)NC(=O)[C@H](C)NC(=O)[C@H](CCCCN)NC(=O)[C@H](C)NC(=O)CNC(=O)[C@@H](N)Cc1ccc(O)cc1)C(=O)O [KAK, YG[AKAKAAKA](2), reference compound] (H-YGAKAKAAKAAKAKAAKA-OH) | – | – | – | – | – | – | – | – | – | – | – | low | –
5 | C[C@H](NC(=O)[C@H](C)NC(=O)[C@H](CCCCN)NC(=O)[C@H](C)NC(=O)[C@H](C)NC(=O)[C@H](CCCCN)NC(=O)[C@H](CCCCN)NC(=O)[C@H](C)NC(=O)[C@H](C)NC(=O)[C@H](CCCCN)NC(=O)[C@H](C)NC(=O)[C@H](C)NC(=O)[C@H](CCCCN)NC(=O)[C@H](CCCCN)NC(=O)[C@H](C)NC(=O)[C@H](C)NC(=O)CNC(=O)[C@@H](N)Cc1ccc(O)cc1)C(=O)O [AKK, YGAA[KKAAKAA](2), reference compound] (H-YGAAKKAAKAAKKAAKAA-OH) | – | – | – | – | – | – | – | – | – | – | – | low | –
6 | CCCCCCCCCCCCCCCCCC(=O)N[C@@H](CCCCN)C(=O)N[C@@H](CC(C)C)C(=O)N[C@@H](Cc1ccccc1)C(=O)N[C@@H](CCCCN)C(=O)N[C@@H](CCCNC(=N)N)C(=O)N[C@@H](Cc1c[nH]cn1)C(=O)N[C@@H](CC(C)C)C(=O)N[C@@H](CCCCN)C(=O)N[C@@H](Cc1c[nH]c2ccccc12)C(=O)N[C@@H](CCCCN)C(=O)N[C@H](C(=O)N[C@H](C(N)=O)[C@@H](C)CC)[C@@H](C)CC [C18-SC4] (Stearoyl-KLFKRHLKWKII-NH2) | 0.10 µM | 1.9 µM | 0.13 µM | 0.24 µM | 2.23 µM | 0.042 µM | 0.23 µM | 0.11 µM | 0.11 µM | 0.068 µM | 0.19 µM | – | Killing of drug-resistant S. aureus strains [2]: killed both drug-resistant strains; Hemolytic activity, fold more hemolytic than C12-SC4 (human red blood cells): roughly 3 fold; IC50 (E. coli 055:B5 LPS): 82 nM; LPS binding activity, fold higher than the SC4 peptide (E. coli 055:B5 LPS): ~6 fold; Increase in antibacterial effect relative to SC-4 [3]: ten to twenty fold increases
7 | conjugated AKK: AKK peptide YGAA[KKAAKAA](2) conjugated with lauric acid (YGAAKKAAKAA; numbers in words are those of the source; also: dimer [KKAAKAA](2), lauric acid conjugate, place not given here) | – | – | – | – | – | – | – | – | – | – | – | low | Antimicrobial activity relative to unconjugated peptide (bacteria): increased antimicrobial activity
